According to PubChem BioAssay (NCI):
“And” between values parts separate entries of the source, which are not always exact repeats. Equal entries are not always repeated.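 Assay format: 96-well plates, 48-hour exposure. Abbreviation: GI50, concentration required for 50% inhibition of growth. The concentration for full growth arrest is given as TGI.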

How the values were obtained:
Assay in all cases: inhibition of tumour cell growth, NCI panel, 48 h
[1] = tested on: HCT-15 colon
[2] = tested on: UO-31 renal
[3] = tested on: MOLT-4 leukemia
[4] = tested on: SF-295 CNS
[5] = tested on: A549 NSCLC
[6] = tested on: SNB-19 CNS
[7] = tested on: HCC-2998 colon
[8] = tested on: MALME-3M melanoma
[9] = tested on: SK-OV-3 ovarian
[10] = tested on: OVCAR-5 ovarian

`O=C1c2ccccc2-c2c1c1ccccc1c(=O)n2CCCNCCCn1ccnc1` was tested, and the GI50 [1] was 0.44 µM, the TGI [1] was 10.1 µM and the GI50 [2] was 1.23 µM. For the same compound, the TGI [2] was over 100 µM, the GI50 [3] was 0.0267 µM and the TGI [3] was 0.358 µM. The GI50 [4] was 0.419 µM, the TGI [4] was 1.99 µM and the GI50 [5] was 1.02 µM. It also gave a TGI [5] of 20.1 µM, a GI50 [6] of 1.47 µM and a TGI [6] of 13.1 µM. For the same compound, the GI50 [7] was 0.894 µM, the TGI [7] was 2.38 µM and the GI50 [8] was 3.33 µM. It also gave a TGI [8] of 13.4 µM, a GI50 [9] of 3.16 µM and a TGI [9] of 17.7 µM. It also gave a GI50 [10] of 1.55 µM and a TGI [10] of 4.93 µM.

`COc1cc(Cl)c2c3c(c(C(C)=O)oc13)CCC2` gave a TGI [1] of over 100 µM, a TGI [4] of over 100 µM and a TGI [5] of over 100 µM. The TGI [6] was over 100 µM, the TGI [7] was over 100 µM and the TGI [9] was over 100 µM.

In the case of `Nc1ccc(N(S(=O)(=O)c2ccccc2)S(=O)(=O)c2ccccc2)c(Cl)c1`, the TGI [1] is reported as over 100 µM, the TGI [2] is reported as over 100 µM and the TGI [3] is reported as 60.5 µM. The TGI [4] was over 100 µM, the TGI [5] was over 100 µM and the TGI [6] was over 100 µM. The TGI [7] was 64.2 µM, the TGI [8] was over 100 µM and the TGI [10] was over 100 µM.

Compound `COc1cc(/C=C(\C#N)C(=O)c2ccccc2)ccc1OCc1ccccc1` has a TGI [1] of over 100 µM, a TGI [2] of over 100 µM and a TGI [3] of over 100 µM. For the same compound, the TGI [4] was over 100 µM, the TGI [5] was over 100 µM and the TGI [6] was over 100 µM. The TGI [7] was over 100 µM, the TGI [9] was over 100 µM and the TGI [10] was over 100 µM.

With `CN1CCN(CCCN)CC1` the TGI [1] was over 100 µM, the TGI [2] was over 100 µM and the TGI [3] was over 100 µM. For the same compound, the TGI [4] was over 100 µM, the TGI [5] was over 100 µM and the TGI [6] was over 100 µM. The TGI [8] was over 100 µM, the TGI [9] was over 100 µM and the TGI [10] was over 100 µM.

Compound `Cc1cc(C)c([O-])c(CN(C)CCN(C)Cc2cc(C)cc(C)c2[O-])c1.O=C([O-])c1cccc(C(=O)[O-])n1.[Ti+4]` has a GI50 [1] of 3.5 µM, a TGI [1] of over 100 µM and a GI50 [2] of 2.26 µM. The TGI [2] was over 100 µM, the GI50 [3] was 3.12 µM and the TGI [3] was over 100 µM. It also gave a GI50 [4] of 2.57 µM, a TGI [4] of over 100 µM and a GI50 [5] of 3.18 µM. For the same compound, the TGI [5] was over 100 µM, the GI50 [6] was 3.25 µM and the TGI [6] was over 100 µM. The GI50 [7] was 2.98 µM, the TGI [7] was over 100 µM and the GI50 [8] was 1.45 µM. For the same compound, the TGI [8] was 5.21 µM, the GI50 [9] was 3.54 µM and the TGI [9] was over 100 µM. It also gave a GI50 [10] of 2.31 µM and a TGI [10] of over 100 µM.

Work on `CC(O)c1cccc(NCc2c3ccccc3c(=O)n3c2oc2ccccc23)c1` (stereo not given) yielded a GI50 [1] of 5.56 µM, a TGI [1] of 28.8 µM and a GI50 [2] of 3.58 µM. The TGI [2] was 28.1 µM, the GI50 [3] was 5.03 µM and the TGI [3] was over 100 µM. It also gave a GI50 [4] of 2.43 µM, a TGI [4] of 14.5 µM and a GI50 [5] of 2.33 µM. It also gave a TGI [5] of 24 µM, a GI50 [6] of 16.4 µM and a TGI [6] of 88.3 µM. For the same compound, the GI50 [7] was 11.3 µM, the TGI [7] was 57.2 µM and the GI50 [9] was 4.42 µM. It also gave a TGI [9] of 30.6 µM, a GI50 [10] of 18.3 µM and a TGI [10] of over 100 µM.

`O=Cc1ccc(-c2cc(C=O)c(-c3cccs3)[nH]2)s1` was tested, and the GI50 [1] was 74.8 µM, the TGI [1] was 75 µM and > 100 µM and the GI50 [2] was 34 µM. The TGI [2] was 75 µM and > 100 µM, the GI50 [3] was 81 µM and the TGI [3] was 75 µM and > 100 µM. The GI50 [4] was 36.9 µM, the TGI [4] was 75 µM and > 100 µM and the GI50 [5] was 29.8 µM. For the same compound, the TGI [5] was 75 µM and > 100 µM, the GI50 [6] was over 100 µM and the TGI [6] was 75 µM and > 100 µM. The GI50 [7] was 20.1 µM, the TGI [7] was 56.6 µM and > 100 µM and the GI50 [8] was over 100 µM. The TGI [8] was 75 µM and > 100 µM, the GI50 [9] was over 100 µM and the TGI [9] was 75 µM and > 100 µM. For the same compound, the GI50 [10] was 66.4 µM and the TGI [10] was over 100 µM.

Compound `CC(=O)c1cccc(N2COC(C)(C)c3nc4ccccc4n3C2)c1` has a TGI [1] of over 100 µM, a TGI [2] of over 100 µM and a TGI [3] of over 100 µM. For the same compound, the TGI [4] was over 100 µM, the TGI [5] was over 100 µM and the TGI [6] was over 100 µM. For the same compound, the TGI [7] was over 100 µM, the TGI [8] was over 100 µM and the TGI [9] was over 100 µM.

Compound `Cc1c(NC(=O)C(C)(C)Br)c(=O)oc2c(C)c3occc(=O)c3cc12` has a TGI [1] of over 100 µM, a TGI [2] of 76.2 µM and a TGI [3] of over 100 µM. The TGI [4] was over 100 µM, the TGI [5] was over 100 µM and the TGI [6] was over 100 µM. The TGI [7] was over 100 µM and the TGI [8] was over 100 µM.

In the case of `O=C1Nc2ccc(C(=O)c3ccco3)cc2/C1=C/c1cc(Cl)c(O)c(Cl)c1`, the GI50 [1] is reported as 4.16 µM, the TGI [1] is reported as over 25 µM and the GI50 [2] is reported as 4.56 µM. For the same compound, the TGI [2] was 11.5 µM, the GI50 [3] was 9.36 µM and the TGI [3] was 24.9 µM. The GI50 [4] was 8.21 µM, the TGI [4] was over 25 µM and the GI50 [5] was 6.77 µM. It also gave a TGI [5] of over 24 µM, a GI50 [6] of 8.52 µM and a TGI [6] of over 25 µM. The GI50 [7] was 6.07 µM, the TGI [7] was 17.7 µM and the GI50 [8] was 1.66 µM. The TGI [8] was 11.1 µM, the GI50 [9] was 4.51 µM and the TGI [9] was 16.1 µM. It also gave a GI50 [10] of 8.35 µM and a TGI [10] of over 20 µM.

With `CCOC(=O)C(Cc1c[nH]c2ccc(N)cc12)(NC(C)=O)C(=O)OCC` the GI50 [1] was over 1000 µM, the TGI [1] was over 1000 µM and the GI50 [2] was over 1000 µM. The TGI [2] was over 1000 µM, the GI50 [4] was over 1000 µM and the TGI [4] was over 1000 µM. It also gave a GI50 [5] of over 1000 µM, a TGI [5] of over 1000 µM and a GI50 [6] of over 1000 µM. The TGI [6] was over 1000 µM, the GI50 [7] was over 1000 µM and the TGI [7] was over 1000 µM. For the same compound, the GI50 [8] was over 1000 µM, the TGI [8] was over 1000 µM and the GI50 [9] was over 1000 µM. It also gave a TGI [9] of over 1000 µM, a GI50 [10] of over 1000 µM and a TGI [10] of over 1000 µM.

`Cc1cc(I)cc(CN(C)CCCN2CCSCC2)c1O` showed a GI50 [1] of 17.8 µM, a TGI [1] of 37.2 µM and a GI50 [2] of 26.4 µM. For the same compound, the TGI [2] was over 100 µM, the GI50 [3] was 19.4 µM and the TGI [3] was 41.6 µM. For the same compound, the GI50 [5] was 30.7 µM, the TGI [5] was over 100 µM and the GI50 [6] was 25.6 µM. For the same compound, the TGI [6] was 55.6 µM, the GI50 [7] was 17.5 µM and the TGI [7] was 32.5 µM. For the same compound, the GI50 [8] was 23.2 µM, the TGI [8] was 44.6 µM and the GI50 [9] was 35.4 µM. The TGI [9] was over 100 µM, the GI50 [10] was 29.1 µM and the TGI [10] was 92.4 µM.

Work on `CC12OC(c3ccccc3)=CC(c3ccc(Cl)cc3)=C1C(c1ccccc1)=CC2=O` (stereo not given) yielded a GI50 [1] of 26.3 µM, a TGI [1] of over 100 µM and a GI50 [2] of over 100 µM. The TGI [2] was over 100 µM, the GI50 [3] was 20.6 µM and the TGI [3] was 75.6 µM. The GI50 [4] was 25 µM, the TGI [4] was over 100 µM and the GI50 [5] was 89.1 µM. The TGI [5] was over 100 µM, the GI50 [6] was over 100 µM and the TGI [6] was over 100 µM. The GI50 [7] was 75.2 µM, the TGI [7] was over 100 µM and the GI50 [8] was over 100 µM. It also gave a TGI [8] of over 100 µM, a GI50 [9] of over 100 µM and a TGI [9] of over 100 µM. For the same compound, the GI50 [10] was over 100 µM and the TGI [10] was over 100 µM.

With `CC(C)c1ccc(C(=O)Nc2nc3ccc(O)cc3s2)cc1` the GI50 [1] was 0.274 µM, the TGI [1] was over 100 µM and the GI50 [2] was 0.35 µM. It also gave a TGI [2] of over 100 µM, a GI50 [3] of 0.246 µM and a TGI [3] of over 100 µM. It also gave a GI50 [5] of 2.33 µM, a TGI [5] of over 100 µM and a GI50 [6] of 8.27 µM. For the same compound, the TGI [6] was over 100 µM, the GI50 [7] was 0.371 µM and the TGI [7] was 1.81 µM. It also gave a GI50 [8] of 0.684 µM, a TGI [8] of over 100 µM and a GI50 [10] of 7.68 µM. For the same compound, the TGI [10] was over 100 µM.
